Source: patent publication US9867884B2, “Vascular delivery systems” (Ben-Gurion University of the Negev Research and Development …, priority 2008, dated 2018)
Read-outs that look alike come from different tables or passages of the source. Ends that are not written are not given here. * marks the point of attachment. Methacryloyl = C=C(C)C(=O)*

Tests used:
[1] = tested on: E-selectin expressing cells (IVECs); assay: Flow cytometry of binding and uptake of FITC-labeled conjugates by IVECs; assay type: cell-based, human; settings: 1 h at 4° C., E-selectin expressing cells (FIG. 12)
Procedure: FIG. 11A-F depicts the results of flow cytometry assays of IVECs incubated with P-Esbp at different temperatures. FIGS. 11(A)-(D) depict results of IVECs incubated 4° C. for 1 hour, while FIGS. 11(E)-(F) depict results of IVECs incubated 37° C. for 15 hr in activated (F) and non-activated (E) cells. FIGS. 11A and 11B show results of incubation with P-Esbp at a concentration of 10 and 50 μg/ml, respectively in TNF-α activated cells, versus 11C and D, which show the results of non-activated cells incubated with the same concentration of P-Ebsp, respectively. Fluorescence, size and number of cells were all measured with GUAVA Tech-Mini Easycyte at 520 nm. Statistical analysis of the results was performed with Cytosoft software (GUAVA Tech). Gates for size and fluorescence were set according to the control experiment with P-GG-OH incubated with non activated IVEC cells.
At 37° C. […]
E-selectin expressing cells were treated with P-Esbp and P-Scrmb as described in previous examples, to determine binding, in activated and non-activated cells (FIG. 12). Cells were treated with P-Esbp and P-Scrmb conjugates for 1 h at 4° C. and evaluated for binding. […] Binding of P-Esbp and scrambled Esbp peptide sequence polymer conjugates (P-Scrmb) to E-selectin expressing cells was similarly evaluated, when cells were also contacted with or without free peptides (FIG. 13). […]

[2] = tested on: E-selectin expressing cells (human IVECs); assay: Confocal microscopy of uptake and lysosomal colocalization of FITC-labeled copolymer conjugates in IVECs; assay type: cell-based; settings: Example 17, activated and non-activated human IVECs (FIG. 14)
Procedure: Internalization of P-sLe^x-FITC and P-QA-FITC conjugates by endothelial cells was studied using confocal laser scanning microscopy (CLSM). Human IVECs grown on cover glass, and treated with the polymer conjugate, and probed for localization of the polymer within lysosomal vessicles. After 24 hours incubation, cells are washed with cold phosphate-buffered saline (PBS) and fixed with 4% PFA. The cells on the cover glass are mounted in antibleach reagent on slides, examined using a CLSM, and analyzed.
Confocal microscopy was used to evaluate the subcellular fate of the FITC labeled copolymer conjugates by human immortalized vascular endothelial cells, IVECs. Lysotracker Red DND-99 (Molecular Probes, Leiden, The Netherlands) was selected to visualize lysosomes. Cells ([…]) were seeded onto gelatin coated cover slips in 24 wells plate with 500 μL endothelial cells culture medium (Promocell) and incubated for 24 hr. […] Quantitative analysis was performed using Image-Pro Plus 4.0 (Media Cybernetics, Silver Spring, Md.). Fluorescence intensities were expressed in arbitrary units per square micron. […]
Confocal microscopy was used to evaluate the uptake of P-Esbp. […] After removal of medium cells were incubated with 0.5 ml medium with 50 μg/ml of FITC labeled P-Esbp solution for 6 or 24 hours and subjected to fluorescence microscopy. […]

E-selectin = molecular target: T1, E-selectin (Homo sapiens, UniProt P16581); assay: Inhibition of HL-60 adhesion to recombinant soluble E-selectin coated plates (competitive inhibition assay); assay type: binding
T1 sequence (P16581 22-556 limits assumed): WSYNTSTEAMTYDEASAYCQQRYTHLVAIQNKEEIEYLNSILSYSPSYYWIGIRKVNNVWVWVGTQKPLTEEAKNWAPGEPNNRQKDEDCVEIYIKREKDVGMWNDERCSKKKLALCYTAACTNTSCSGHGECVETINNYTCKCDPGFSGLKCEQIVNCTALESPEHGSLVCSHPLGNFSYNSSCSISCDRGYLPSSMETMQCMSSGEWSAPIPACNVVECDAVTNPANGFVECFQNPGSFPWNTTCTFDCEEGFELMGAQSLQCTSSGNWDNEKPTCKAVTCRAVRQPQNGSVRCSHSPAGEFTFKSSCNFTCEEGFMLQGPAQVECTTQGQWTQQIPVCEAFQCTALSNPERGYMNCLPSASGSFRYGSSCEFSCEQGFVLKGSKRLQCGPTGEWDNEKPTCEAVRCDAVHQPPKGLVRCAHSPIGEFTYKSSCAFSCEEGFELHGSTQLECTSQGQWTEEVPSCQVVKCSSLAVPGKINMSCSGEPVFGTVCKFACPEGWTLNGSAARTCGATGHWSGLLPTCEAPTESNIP
Procedure: The percentage of bound HL-60 cells is determined with o-phenylenediamine as a substrate for myeloperoxidases released from lysed cells. […] FIG. 3B depicts binding in the presence of P-Glu-Gly-QA, PAAsLe^x and pHPMA polymers; FIG. 3C depicts binding of P-Glu-Gly-QA and P-Gly-Gly-Lys(Glu)-QA conjugates.
Affinity of Esbp and P-Esbp to E-selectin was evaluated by a competitive inhibition assay of HL-60 to immobilized E-selectin. […] FIG. 7B the results of an inhibition assay with P-Esbp and P-GG-OH, under the same procedure as in FIG. 7A. In this figure diamonds are P-Esbp and squares are P-GG-OH.
The percentage of bound HL-60 cells is determined with o-phenylenediamine as a substrate for myeloperoxidases released from lysed cells. All assays is performed in duplicates.

leukocyte adhesion = settings: have been shown (prior report); read-out: IC50 of inhibition of leukocyte adhesion; cited from earlier work

Substance: P-Scrmb: scrambled Esbp peptide sequence polymer conjugate, GKMIDWTWLQLDD (SEQ ID NO: 8) (Methacryloyl-GGGKMIDWTWLQLDD; also: polymer conjugate, FITC)
- percentage of labeled cells [1]: 6%
- internalization and colocalization with lysosomal marker [2]: did not show reasonable internalization or colocalization

Substance: N-methacryloyl-aminopropyl-Glutamyl-Glycyl-quinic acid [MAP-Glu-Gly-QA]
- IC50 (E-selectin; monomers, HL-60 adhesion to immobilized E-selectin, 15 min (FIG. 3A), read-out: Inhibition of 50% binding (IC50) value): 10000 µM

Substance: DITWDQLWDLMK [Esbp, reference compound]
- IC50 (leukocyte adhesion): 0.004 µM
- IC50 (E-selectin; Esbp monomer, FIG. 7A, read-out: IC50): 10 µM
